Source: PubChem BioAssay AID1963424 (Molecular Pharmacology Branch, DTP, NCI, 2024)
pIC50: −log10 of the molar value. Where “and” joins values, the source holds several entries; their conditions need not be identical. Equal values may be shown once.

Tested on: 327498-153-R-J2-PDC complex spheroid growth, % test/control
Test: Anticancer human tumor 327498-153-R-J2-PDC patient-derived uterine carcinosarcoma cell line growth inhibition [Asc]
Details: for viability, T/C: stronger effect = lower value; active = viability on the fitted dose curve at most 10% of control; inactive = the rest
Outline: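 Tumor cells were grown as complex spheroids with human endothelial cells (HUVEC) and human mesenchymal stem cells as stroma. Agents were tested alone and in combination, in half-log steps down from the clinical Cmax, or from 10 microM where Cmax was unknown.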
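Also: spheroids exposed to compound for 7 days after 3 days of growth.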
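For viability, T/C in this document: 100% = DMSO vehicle control wells.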

CCN1CCN(Cc2ccc(Nc3ncc(F)c(-c4cc(F)c5nc(C)n(C(C)C)c5c4)n3)nc2)CC1 + CCN1C(C(=O)NC23CCC(C(=O)O)(CC2)CC3)C(c2cccc(Cl)c2F)C2(C(=O)Nc3cc(Cl)ccc32)C12CCCCC2
active: viability, T/C (second compound 0.949 µM, first compound 0.00316 µM) 9.27% | viability, T/C (second compound 0.949 µM, first compound 0.01 µM) 8.09% | viability, T/C (second compound 0.949 µM, first compound 0.0316 µM) 6.59% | viability, T/C (second compound 0.949 µM, first compound 0.1 µM) 7.13% | viability, T/C (second compound 0.949 µM, first compound 0.316 µM) 8.2% | viability, T/C (second compound 0.949 µM, first compound 1 µM) 11.3% | viability, T/C (second compound 3 µM, first compound 0.00316 µM) 3.59% | viability, T/C (second compound 3 µM, first compound 0.01 µM) 3.67% | viability, T/C (second compound 3 µM, first compound 0.0316 µM) 2.51% | viability, T/C (second compound 3 µM, first compound 0.1 µM) 3.55% | viability, T/C (second compound 3 µM, first compound 0.316 µM) 4.83% | viability, T/C (second compound 3 µM, first compound 1 µM) 8.39%
inactive: viability, T/C (second compound 0.03 µM, first compound 0.00316 µM) 86.8% | viability, T/C (second compound 0.03 µM, first compound 0.01 µM) 84.2% | viability, T/C (second compound 0.03 µM, first compound 0.0316 µM) 77.1% | viability, T/C (second compound 0.03 µM, first compound 0.1 µM) 52.4% | viability, T/C (second compound 0.03 µM, first compound 0.316 µM) 48.4% | viability, T/C (second compound 0.03 µM, first compound 1 µM) 53.3% | viability, T/C (second compound 0.0949 µM, first compound 0.00316 µM) 68% | viability, T/C (second compound 0.0949 µM, first compound 0.01 µM) 68.4% | viability, T/C (second compound 0.0949 µM, first compound 0.0316 µM) 48.3% | viability, T/C (second compound 0.0949 µM, first compound 0.1 µM) 31.7% | viability, T/C (second compound 0.0949 µM, first compound 0.316 µM) 39.8% | viability, T/C (second compound 0.0949 µM, first compound 1 µM) 39% | viability, T/C (second compound 0.3 µM, first compound 0.00316 µM) 34.3% | viability, T/C (second compound 0.3 µM, first compound 0.01 µM) 26.6% | viability, T/C (second compound 0.3 µM, first compound 0.0316 µM) 18.2% | viability, T/C (second compound 0.3 µM, first compound 0.1 µM) 15.4% | viability, T/C (second compound 0.3 µM, first compound 0.316 µM) 17.9% | viability, T/C (second compound 0.3 µM, first compound 1 µM) 21.3%
< 6.00: pIC50 (curve of first compound, second compound 0.03 µM)
> 8.50: pIC50 (curve of first compound, second compound 0.3 µM) | pIC50 (curve of first compound, second compound 0.949 µM) | pIC50 (curve of first compound, second compound 3 µM)
7.54: pIC50 (curve of first compound, second compound 0.0949 µM)

NC1CCC(NC2CC2c2ccccc2)CC1 (configuration not stated) + Cc1c(S(C)(=O)=O)c(-c2cc(F)cc(N3CCN(c4ccc(NS(=O)(=O)c5ccc(NC(CCN6CCC(C(=O)OCCCP(=O)(O)O)CC6)CSc6ccccc6)c(S(=O)(=O)C(F)(F)F)c5)cc4)CC3)c2)c(-c2ccc(Cl)cc2)n1C(C)C
< 7.00: pIC50 (curve of first compound, second compound 0.1 µM) | pIC50 (curve of first compound, second compound 0.316 µM) | pIC50 (curve of first compound, second compound 1 µM) | pIC50 (curve of first compound, second compound 3.16 µM) | pIC50 (curve of first compound, second compound 10 µM)
inactive: viability, T/C (second compound 0.1 µM, first compound 0.000316 µM) 98.9% | viability, T/C (second compound 0.1 µM, first compound 0.001 µM) 109% | viability, T/C (second compound 0.1 µM, first compound 0.00316 µM) 104% | viability, T/C (second compound 0.1 µM, first compound 0.01 µM) 95.6% | viability, T/C (second compound 0.1 µM, first compound 0.0316 µM) 100% | viability, T/C (second compound 0.1 µM, first compound 0.1 µM) 98% | viability, T/C (second compound 0.316 µM, first compound 0.000316 µM) 89.6% | viability, T/C (second compound 0.316 µM, first compound 0.001 µM) 99.5% | viability, T/C (second compound 0.316 µM, first compound 0.00316 µM) 95% | viability, T/C (second compound 0.316 µM, first compound 0.01 µM) 88.3% | viability, T/C (second compound 0.316 µM, first compound 0.0316 µM) 93.8% | viability, T/C (second compound 0.316 µM, first compound 0.1 µM) 95.5% | viability, T/C (second compound 1 µM, first compound 0.000316 µM) 94.2% | viability, T/C (second compound 1 µM, first compound 0.001 µM) 96.6% | viability, T/C (second compound 1 µM, first compound 0.00316 µM) 90.4% | viability, T/C (second compound 1 µM, first compound 0.01 µM) 91.5% | viability, T/C (second compound 1 µM, first compound 0.0316 µM) 96.8% | viability, T/C (second compound 1 µM, first compound 0.1 µM) 90.6% | viability, T/C (second compound 3.16 µM, first compound 0.000316 µM) 98.9% | viability, T/C (second compound 3.16 µM, first compound 0.001 µM) 91.4% | viability, T/C (second compound 3.16 µM, first compound 0.00316 µM) 92.6% | viability, T/C (second compound 3.16 µM, first compound 0.01 µM) 86.3% | viability, T/C (second compound 3.16 µM, first compound 0.0316 µM) 96.8% | viability, T/C (second compound 3.16 µM, first compound 0.1 µM) 90.1% | viability, T/C (second compound 10 µM, first compound 0.000316 µM) 177% | viability, T/C (second compound 10 µM, first compound 0.001 µM) 173% | viability, T/C (second compound 10 µM, first compound 0.00316 µM) 160% | viability, T/C (second compound 10 µM, first compound 0.01 µM) 158% | viability, T/C (second compound 10 µM, first compound 0.0316 µM) 168% | viability, T/C (second compound 10 µM, first compound 0.1 µM) 181%

O=C(c1ccc(F)c(F)c1Nc1ccc(I)cc1F)N1CC(O)([C@@H]2CCCCN2)C1
inactive: viability, T/C (compound 0.00316 µM) 96.9% and 101% and 95.2% | viability, T/C (compound 0.01 µM) 96.2% and 95.5% and 92.5% | viability, T/C (compound 0.0316 µM) 88.3% and 78.5% and 90.8% | viability, T/C (compound 0.1 µM) 81% and 66.6% and 80.8% | viability, T/C (compound 0.316 µM) 60.5% and 59.8% and 60.2% | viability, T/C (compound 1 µM) 27.1% and 21.9% and 27.9%
6.34 and 6.47: pIC50 (curve of compound)
